The target of one assay is T1, CXCR7 (Homo sapiens, UniProt P25106).
T1 construct: expressed in transfected cells; host or cells: reporter cells stably expressing the CXCR7/β-arrestin 2 PCA
Put plainly: CXCR7/β-arrestin 2 firefly luciferase complementation assay for CXCR7 activation. It counts as cell-based. The source says:
Binding of synthetic or natural ligands to 7-transmembrane receptors activates the receptor, resulting in receptor activation and recruitment of β-arrestin, a cytosolic adapter protein. The protein interaction between CXCR7 and β-arrestin 2 has been used to develop a protein fragment complementation assay for detecting activation of CXCR7. […] Ligand-dependent interaction of CXCR7 and β-arrestin 2 also brings together NLuc and CLuc fragments, which reconstitutes active firefly luciferase.
Ligands for CXCR7 activate the receptor, causing recruitment of β-arrestin. To determine to what extent the engineered knottin interacts with CXCR7, firefly luciferase complementation for CXCR7 activation was used as a reporter for binding of the peptide to the receptor. CXCR7/β-arrestin reporter cells were incubated with increasing concentrations of CXCR7-targeted knottin for 2 hours and then luciferase activity was quantified in living cells.

Another assay deals with T2, CXCR4 (Homo sapiens, UniProt P61073).
T2 construct: expressed in transfected cells
Briefly: Luciferase complementation for recruitment of β-arrestin to CXCR4. In kind it is cell-based.

Assay [1] deals with adenomas (dysplastic polyps) in the rectum. Briefly: In vivo fluorescence endoscopy of topically applied peptide in CPC;APC mouse model of colon cancer. Particulars: FITC-labeled peptide 10 μM, 1 ml topical, ~10 minute dwell, PBS rinse. The source says: This small animal endoscope (Karl Storz Veterinary Endoscopy, Goleta, Calif.) consists of a 9.5 Fr (3 mm) diameter rigid Hopkins II 0 deg telescope with a 11.5 cm working length and a 3 Fr (1 mm) diameter instrument channel for performing tissue biopsy. Fluorescence excitation is produced with a 450 to 475 nm passband filter that can be manually switched into the optical path of a 175 W Nova Xenon light source, and is delivered to the endoscope via a 3 mm diameter fluid light cable with 250 cm length. Fluorescence images are collected with 510 nm barrier filter to block the excitation light, and are detected with a 3-chip color camera with an integrated parfocal zoom lens. Real time video can be recorded via firewire connected to a personal computer.
The rectum of the mouse was first cleaned of stool and debris by performing tap water lavage, and then the distal end of the small animal endoscope was lubricated and inserted into the rectum of the mouse. Once adenomas were identified on white light, shown in FIG. 25A, a 1 ml solution of FITC-labeled peptide “VRPMPLQ” at a concentration of 10 μM was applied through the instrument channel with a syringe, and allowed to dwell for ˜10 minute, followed by gentle rinsing with PBS. […] The rectum was then rinsed vigorously with PBS. Complete removal of the peptide from the rectal mucosa was observed on fluorescence. […]

The subject of the next assay is colonic adenoma. Particulars: topical, cited from earlier work.

Entries after “also recorded” stand apart in the source; their conditions may differ.

These results are taken from patent US9921406B2, “Targeted dual-axes confocal imaging apparatus with vertical scanning capabilities” (THE REGENTS OF THE UNIVERSITY OF MICHIGAN, priority 2009, dated 2018).

T1 sequence (P25106 whole entry, species assumed): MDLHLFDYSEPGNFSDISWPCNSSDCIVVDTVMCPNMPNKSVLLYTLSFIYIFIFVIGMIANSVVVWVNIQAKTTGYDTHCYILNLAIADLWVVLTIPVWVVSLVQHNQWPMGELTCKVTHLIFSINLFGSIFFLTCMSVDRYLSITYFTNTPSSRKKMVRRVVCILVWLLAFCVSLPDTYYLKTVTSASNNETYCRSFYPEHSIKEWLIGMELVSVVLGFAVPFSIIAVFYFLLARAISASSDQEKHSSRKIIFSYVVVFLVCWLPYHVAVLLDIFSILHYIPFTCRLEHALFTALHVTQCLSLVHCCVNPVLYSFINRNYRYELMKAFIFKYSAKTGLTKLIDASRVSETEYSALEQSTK
T1 sequence (P32121 whole entry partner, species assumed): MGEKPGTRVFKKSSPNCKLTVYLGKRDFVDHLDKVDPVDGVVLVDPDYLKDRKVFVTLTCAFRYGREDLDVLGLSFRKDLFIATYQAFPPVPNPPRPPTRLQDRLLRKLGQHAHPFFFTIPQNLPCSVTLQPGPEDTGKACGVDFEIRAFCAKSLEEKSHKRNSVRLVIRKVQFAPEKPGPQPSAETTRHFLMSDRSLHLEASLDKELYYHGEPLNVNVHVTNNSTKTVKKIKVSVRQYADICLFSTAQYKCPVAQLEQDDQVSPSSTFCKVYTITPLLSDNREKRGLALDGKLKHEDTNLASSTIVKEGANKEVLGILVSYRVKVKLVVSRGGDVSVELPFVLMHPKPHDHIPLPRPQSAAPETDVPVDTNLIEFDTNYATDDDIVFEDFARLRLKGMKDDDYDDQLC
T2 sequence (P61073 whole entry, species assumed): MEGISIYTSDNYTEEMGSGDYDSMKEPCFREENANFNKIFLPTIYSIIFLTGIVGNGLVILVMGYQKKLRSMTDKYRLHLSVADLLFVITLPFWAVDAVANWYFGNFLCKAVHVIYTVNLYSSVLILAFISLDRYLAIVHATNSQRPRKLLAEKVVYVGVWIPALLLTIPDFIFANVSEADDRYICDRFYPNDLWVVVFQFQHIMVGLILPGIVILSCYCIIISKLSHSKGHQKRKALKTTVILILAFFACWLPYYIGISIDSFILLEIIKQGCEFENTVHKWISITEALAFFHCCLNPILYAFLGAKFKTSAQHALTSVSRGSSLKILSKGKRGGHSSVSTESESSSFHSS

As for “GGCKPVSLSYRAPARFCKQDSDCLAGCVCGPNGFCGSA [CXCR7-targeted knottin]”, in the assay with CXCR7 (from luciferase complementation for both receptors), the “selectivity CXCR7 versus CXCR4” value is “selectively interacts with CXCR7 and not CXCR4”. For the same substance, the “activation of CXCR7 (bioluminescence)” value in the assay with CXCR7 (reporter cells, living cells, knottin incubated 2 hours with increasing concentrations) was “increased bioluminescence; also recorded: dose-dependent activation of CXCR7”. The “activation of CXCR4 (recruitment of β-arrestin)” value in the assay with CXCR4 was “did not activate CXCR4”.

Consider “VRPMPLQ [7mer peptide from phage display, conjugated to fluorescein using a hexanoic acid linker to the N-terminus]”, for which the “peptide binding to adenomas (fluorescence image)” value in assay [1] is on record as “preferential peptide binding to the adenomas; also recorded: affinity binding”. Further, the “peptide binding seen in fluorescence image, adenoma versus normal mucosa” value in the assay with colonic adenoma (50 μm depth, FIG. 23B) is reported as “significant peptide binding to colonocytes surrounding dysplastic crypts (adenoma)”. Further, the “average contrast ratio (adenoma:normal fluorescence intensity)” value with colonic adenoma (imaged at 50 μm depth, n=10 adenomas and adjacent normal mucosa) is 21±6.

On to “QLMRPPV [FITC-labeled scrambled (control) peptide, reference compound]”, for which, in assay [1], the “peptide binding to adenomas (fluorescence image)” value is on record as “significantly less fluorescence intensity; also recorded: reduced binding”.
